Structures are written as SMILES. Like-named read-outs stand apart in the source and are kept apart here.

Results on 26 compounds are retold here after US5225436A, “Aryl substituted naphthalene derivatives” (Schering Corporation, priority 1991, dated 1993).

Experiment [1] relates to SRS-A / leukotriene release from antigen-challenged, sensitized guinea pig lung. The experiment is described as follows: Inhibition of SRS-A (leukotriene) release from antigen-challenged, sensitized guinea pig lung. The format is cell-based. Set-up: inhibition: dose or concentration left out as unconfirmed. The note with it: Cavia porcellus; for inhibition: Dose 30 μm (μM). From the text:
The anti-allergy method of this invention is identified by tests which measure a compound's inhibition of leukotriene release in sensitized guinea pigs. Sensitized guinea pigs are killed by a blow to the head and the lungs removed and cleaned of visible connective tissue, trachea and large blood vessels. The lungs from individual animals are sliced into fragments approximately 1 mm in thickness using a McIlwain tissue chopper and then washed with oxygenated Tyrode's buffer. Weighed aliquots (approximately 400 mg wet weight) of lung are transferred into vials containing 2 ml of fresh Tyrode's solution (containing 10 mM cysteine) and incubated in the presence or absence of test compound for 12 min at 37° C. The tissues are then challenged with 20 μg ovalbumin/ml (final concentration) and incubated for 15 min. To measure leukotriene release, an aliquot of supernatant fluid is extracted with 4 volumes of 100% ethanol. After removal of the precipitated protein, the clear fluid is dried under a stream of N2 gas. The leukotriene content is measured by a radioimmunoassay using [^3 H]LTC4 and antiserum obtained from New England Nuclear. The cross-reactivity of the antiserum for LTD4 is 55%. Percent inhibition of lekotriene release is calculated by comparing for each lung the release in the presence of the test compound to that in the absence of test compound. Representative compounds of the invention at a relative dose of 50 μM of tissue are found to inhibit leukotriene release in the test procedure as indicated below in Table 1: […]

Another experiment deals with T1, 5-lipoxygenase (Homo sapiens, UniProt P09917).
T1 construct: Human polymorphonuclear leukocytes (neutrophils) were obtained from normal healthy volunteers; endogenous in cells; host or cells: human blood neutrophils from healthy volunteers
T1 sequence (P09917 1-674): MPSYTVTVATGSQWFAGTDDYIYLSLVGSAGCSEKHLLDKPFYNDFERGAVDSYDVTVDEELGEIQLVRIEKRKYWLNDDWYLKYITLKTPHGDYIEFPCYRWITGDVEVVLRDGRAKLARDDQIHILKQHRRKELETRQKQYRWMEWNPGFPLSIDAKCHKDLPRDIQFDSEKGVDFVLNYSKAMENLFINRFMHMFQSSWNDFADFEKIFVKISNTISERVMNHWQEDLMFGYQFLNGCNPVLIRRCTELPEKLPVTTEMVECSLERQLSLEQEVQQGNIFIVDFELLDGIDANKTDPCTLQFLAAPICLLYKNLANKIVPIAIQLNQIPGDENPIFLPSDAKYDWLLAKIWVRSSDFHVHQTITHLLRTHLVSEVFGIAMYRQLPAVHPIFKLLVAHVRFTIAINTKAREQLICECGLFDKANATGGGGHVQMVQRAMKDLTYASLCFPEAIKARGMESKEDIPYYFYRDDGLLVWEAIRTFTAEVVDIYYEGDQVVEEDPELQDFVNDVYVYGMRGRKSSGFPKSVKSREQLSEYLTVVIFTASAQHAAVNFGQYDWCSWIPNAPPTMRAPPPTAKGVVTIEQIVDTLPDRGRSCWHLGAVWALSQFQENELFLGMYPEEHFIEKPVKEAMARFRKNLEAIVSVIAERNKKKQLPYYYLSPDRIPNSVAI
As to the kind of experiment: 5-Lipoxygenase assay with human neutrophils. It counts as cell-based. As to conditions: 5 min, Human PMN, dose 15 μm (μM). On the procedure: Human polymorphonuclear leukocytes (neutrophils) were obtained from normal healthy volunteers by venipuncture and collected with heparin anticoagulant. Neutrophils were isolated by Dextran/Ficol sedimentation as described (Billah et al., J. Biol. Chem. 260, 6899-6906 (1985)). In brief, 30 ml of blood was mixed with 5 ml of dextran (Sigma) solution and kept at 37° C. for 30 min. The upper white cell-rich layer was removed and 10 ml was layered on 9 ml of Ficol-Paque solution (Pharmacia) and centrifuged at 280 xg for 10 min. at 5° C. The supernatant was removed and the neutrophil pellet was resuspended in HEPES buffer containing 25 mM N-2-hydroxyethylpiperazine-N^1 -2-ethanesulfonic acid HEPES, 125 mM NaCl, 2.5 mM KCl, 0.7 mM MgCl2, […] 10 mM glucose at pH 7.4. The red cells in the suspension were lysed by hypotonic shock. The neutrophils were washed by centrifugation in HEPES buffer two times and finally resuspended at a concentration of 20×10^6 cells/ml in the presence of 1 mM CaCl2.
Neutrophils (0.2 ml of suspension) were preincubated with dimethylsulfoxide (DMSO) vehicle with or without test compound (1 ul) for 4 minutes then incubated for 5 minutes with [^14 C] arachidonic acid (Amersham, 59 Ci/mole) at a 9 uM final concentration, and the calcium ionophore A23187 (Calbiochem) at a 1 uM final concentration. These stimulants were added in 10 ul of water:ethanol (9:1). The reaction was stopped by addition of methanol (0.4 ml), and cellular debris was removed by centrifugation. Aliquots (100 ul) of the incubations were run on a Waters two pump HPLC system fitted with a DuPont Zorbax ODS, 5u, […] Reliance Cartridge column and C18 "Guard Pak". The column was initially eluted at 2 ml/min with 80% of the mixture water:methanol:acetic acid (46:54:0.08) containing 1 mM EDTA adjusted to pH 6.0 with ammonium hydroxide (Pump A) and 20% methanol (Pump B). At 10 minutes, a linear gradient to reach 100% methanol (Pump B) at 27 minutes was established. Between 27 and 28 minutes, methanol was exchanged for the initial eluting solvent and by 35 minutes the column had been reequilibrated for the next sample. The effluent was analyzed by a continuous flow radioactivity monitor (model ROMONA-D) interfaced with a Hewlett Packard Lab Automation System for quantitation of radioactive products. These were predominantly leukotriene B4 (LTB4) which eluted at 7 minutes, and 5-hydroxyeicosatetraenoic acid (5-HETE) which eluted at 20 minutes.

As a reminder, the inhibition is the drop in the measured response relative to a control, in per cent. As for `COc1cc(O)c2c(c1)C(C)(C)C(c1ccc(OC)c(OC)c1)=CC2=O`, the inhibition at 50 µM in experiment [1] amounted to 10%.

With `CC(=O)Oc1cc(OC(C)=O)c2c(c1)C(C)(C)C(c1ccc(OC(C)=O)c(OC(C)=O)c1)CC2=O` (stereo not drawn), the inhibition at 50 µM in experiment [1] amounted to 48%.

Take `COc1cc(OC)c2c(c1)C(C)(C)C(c1ccc(OC)c(OC)c1)=C(O)C2=O`: the inhibition at 50 µM in experiment [1] turned out to be 24%.

For the compound `COc1cc(OC)c2c(c1)C(C)(C)C(c1ccc(OC)c(OC)c1)CC2Sc1ccc(Cl)cc1` (stereo not drawn), in experiment [1], the inhibition was found to be 14%.

For the compound `COc1cc(OC)c2c(c1)C(C)(C)C(c1ccc(OC)c(OC)c1)CC21OCCO1` (stereo not drawn), the inhibition in experiment [1] was found to be 23%.

Take `COc1cc(OC)c2c(c1)C(C)(C)C(c1ccc(OC)c(OC)c1)CC2N` (stereo not drawn): the inhibition in experiment [1] was 0%. Moreover, the inhibition at 15 µM at 5-lipoxygenase (read-out: % Inhibition 5-HETE) and at 5-lipoxygenase (read-out: % Inhibition LTB) was 0% throughout.

Consider `COc1cc(OC)c2c(c1)C(C)(C)C(c1ccc(OC)c(OC)c1)CC2NC(C)=O` (stereo not drawn), for which, in experiment [1], the inhibition came to 11%. Moreover, the inhibition at 15 µM on 5-lipoxygenase (read-out: % Inhibition 5-HETE) turned out to be 0%; on 5-lipoxygenase (read-out: % Inhibition LTB), 4%.

With `CON=C1CC(c2ccc(OC)c(OC)c2)C(C)(C)c2cc(OC)ccc21` (stereo not drawn), the inhibition in experiment [1] stood at 0%. Also, the inhibition at 15 µM on 5-lipoxygenase (read-out: % Inhibition 5-HETE) stood at 74%.

On to `COc1cc(OC)c2c(c1)C(C)(C)C(c1ccc(OC)c(OC)c1)C(C)C2=NO` (stereo not drawn), for which, in experiment [1], the inhibition at 10 µM is 13%. In addition, on 5-lipoxygenase (read-out: % Inhibition 5-HETE), the inhibition at 15 µM was found to be 31%.

`COc1cc(OC)c2c(c1)C(C)(C)C(c1ccccc1)CC2=O` (stereo not drawn): the inhibition at 10 µM in experiment [1] was determined as 6%. Further, the inhibition at 15 µM on 5-lipoxygenase (read-out: % Inhibition 5-HETE) and on 5-lipoxygenase (read-out: % Inhibition LTB) was 0% throughout.

With `COc1ccc2c(c1)C(C)(C)C(c1ccc(OC)c(OC)c1)CC2=O` (stereo not drawn), the inhibition in experiment [1] came out at 28%. Also, the inhibition at 15 µM on 5-lipoxygenase (read-out: % Inhibition 5-HETE) turned out to be 42%.

Consider `COc1cc(OC)c2c(c1)C(C)(C)C(c1ccc(OC)c(OC)c1)C(C=O)C2=O` (stereo not drawn), for which, in experiment [1], the inhibition amounted to 19%. For the same compound, the inhibition at 15 µM is 16% at 5-lipoxygenase (read-out: % Inhibition 5-HETE) and 0% on 5-lipoxygenase (read-out: % Inhibition LTB).

For `CC(=O)Oc1cc(OC(C)=O)c2c(c1)C(C)(C)[C@H](c1ccc(OC(C)=O)c(OC(C)=O)c1)[C@H](OC(C)=O)C2=O` (relative stereo), the inhibition at 50 µM in experiment [1] was 26%.

As for `CC(=O)Oc1cc(OC(C)=O)c2c(c1)C(C)(C)[C@H](c1ccc(OC(C)=O)c(OC(C)=O)c1)[C@@H](OC(C)=O)C2=O` (relative stereo), the inhibition at 50 µM in experiment [1] was determined as 41%.

As to `COc1cc(OC)c2c(c1)C(C)(C)[C@H](c1ccc(OC)c(OC)c1)[C@@H](OC(C)=O)C2=O` (relative stereo), the inhibition at 50 µM in experiment [1] was 12%.

Turning to `COc1ccc(C2CC(=O)c3c(cc(OC)c(OC)c3OC)C2(C)C)cc1OC` (stereo not drawn) [3-(3,4-dimethoxyphenyl)-3,4-dihydro-6,7,8-trimethoxy-4,4-dimethyl-1(2H)naphthalenone], the inhibition at 10 µM in experiment [1] came to 1%. Besides, the inhibition at 15 µM at 5-lipoxygenase (read-out: % Inhibition 5-HETE) and on 5-lipoxygenase (read-out: % Inhibition LTB) was 0% each time.

As to `COc1cc(OC)cc(C2=CC(=O)c3c(OC)cc(OC)cc3C2(C)C)c1` [drawing 84 [K=H]], in experiment [1], the inhibition stood at 33%.

Take `COc1cc(OC)cc(C2=CC(=O)c3c(cc(OC)c(OC)c3OC)C2(C)C)c1` [drawing 84 [K=OCH3]]: the inhibition in experiment [1] amounted to 21%.

In the case of `COc1ccc(CC2CC(C)(C)c3cc(OC)cc(OC)c3C2=O)cc1` (stereo not drawn) [drawing 85 [A=drawing 86; B=H]], the inhibition in experiment [1] amounted to 0%.

As to `COc1ccc(CC2(Cc3ccc(OC)cc3)CC(C)(C)c3cc(OC)cc(OC)c3C2=O)cc1` [drawing 85 [A=drawing 87; B=drawing 88]], the inhibition in experiment [1] worked out at 16%.

Turning to `COc1cc(OC)c2c(c1)C(C)(C)C(c1ccc(OC)c(OC)c1)CC(C)(C)C2=O` (stereo not drawn) [drawing 90 [X=O; W=CH3; J=CH3]], in experiment [1], the inhibition amounted to 25%. On 5-lipoxygenase (read-out: % Inhibition 5-HETE), the inhibition at 15 µM is 54%.

`COc1ccc(CC2CC(C)(C)c3cc(OC)cc(OC)c3C2=O)cc1` (stereo not drawn) [drawing 102 [A=drawing 103; B=H]]: the inhibition at 15 µM at 5-lipoxygenase (read-out: % Inhibition 5-HETE) was 86%.

As to `COc1ccc(CC2(Cc3ccc(OC)cc3)CC(C)(C)c3cc(OC)cc(OC)c3C2=O)cc1` [drawing 102 [A=drawing 104; B=drawing 105]], the inhibition at 15 µM on 5-lipoxygenase (read-out: % Inhibition 5-HETE) worked out at 88%.

Consider `COc1cc(OC)c2c(c1)C(C)(C)C(c1ccc(OC)c(OC)c1)CCO2` (stereo not drawn) [drawing 106 [X=O; R3/R4=H,H; J=H; L,P=OCH3]], for which the inhibition at 15 µM at 5-lipoxygenase (read-out: % Inhibition 5-HETE) is 39%; at 5-lipoxygenase (read-out: % Inhibition LTB), 28%.

For `COc1cc(OC)c2c(c1)C(C)(C)C(c1ccc(OC)c(OC)c1)C(C)C(=O)O2` (stereo not drawn) [drawing 106 [X=O; R3/R4=O; J=CH3; L,P=OCH3], 4-(3,4-dimethoxyphenyl)-4,5-dihydro-7,9-dimethoxy-3,5,5-trimethyl-1-benzoxepin-2(3H)-one], the values for the inhibition at 15 µM at 5-lipoxygenase (read-out: % Inhibition 5-HETE) and at 5-lipoxygenase (read-out: % Inhibition LTB) were 20% and 2%, respectively.

In the case of `CC1(C)c2cc(O)cc(O)c2C(=O)CCC1c1ccc(O)c(O)c1` (stereo not drawn) [drawing 107 [X=O; db no; W,J,F=H; E,G,L,P=OH]], the inhibition at 15 µM on 5-lipoxygenase (read-out: % Inhibition 5-HETE) came out at 88%.
